The source of these data is patent publication EP1184030A1, “Antibacterial composition comprising trimethylnorbornanylcyclohexanol derivatives” (Givaudan SA, priority 2000, dated 2002).

Each structure is given as a SMILES string.

A short description of one data set: Vapour pressure. The format is physicochemical. The source says: Odoriferous substances are by definition volatile compounds which evaporate from the skin and therefore loose their deodorising effect. Furthermore small water-soluble fragrance compounds can get dissolved in sweat and are thus rapidly diluted under conditions of high sweat secretion which further reduces the duration of the deodorising effect. Therefore a low water solubility indicated by a high LogP value and a low volatility indicated by low vapour pressure are desired for odoriferous substances which are used for their antibacterial activity.

Data set [1] deals with Staphylococcus epidermidis Ax25. In words: MIC microtiter plate test, axilla bacteria. In kind it is cell-based. The following applies: for Bacteriostatic activity (concentration needed for at least 80% reduction in growth): S. epidermidis, 24 hours; for Minimal inhibitory concentration (MIC): Ax 25, growth inhibition by at least 80%, 24 h at 36° C. The source says:
(§1) The different bacterial strains had been isolated from the human axilla by current microbiological practice. They were taxonomically identified by cell morphology, gram-reaction and biochemical tests included in the Api coryne test kit (BioMerieux, France). Strain Staphylococcus epidermidis Ax25 was identified by fatty acid methyl ester analysis (FAME; German type strain collection DSMZ, Germany). The strains were maintained on Tryptic soy broth plates, this standard medium being amended with 5 g per Litre of Tween 80 and 1 g of Soybean lecithin. Plates were incubated at 36° C for a period 48 hours. The bacteria were then swabbed from the plates and suspended in 4 ml of Müller-Hinton broth amended with 100 mg of Tween80 per Litre (MH-Tween) and incubated again at 36° C for 16 hours. Following incubation the bacterial suspensions were diluted in MH-Tween to obtain a final cell density of 10^6 colony forming units per ml. For each fragrance material four microtiter plates were used in the example, each microtiter plate having 8 rows, A-H, and 12 columns, 1-12. To each column a diluted suspension of a different test organism was distributed, 100 µl per well. 1% stock solutions of the fragrance materials were then prepared in MH-Tween broth. The fragrance material was dispersed by ultrasonication into the aqueous medium to obtain a homogenous emulsion. 100 µl per well of this emulsion was then added to the first row of the microtiter plates already containing the target organisms. Serial dilution series were then prepared starting at row A and continuing until row G, each time removing 100 µl from a well and transferring it to the next well. In this way fragrance concentrations of 0.5%, 0.25%, 0.125%, 0.0625%, 0.03125%, 0.0156% and 0.0078% were tested for their antibacterial efficacy. The reference compound Triclosan was tested at 16 fold lower concentrations. The plates were covered with plastic films and incubated for 24 h at 36° C with shaking at 250 rpm. The turbidity developing in the microtiter plates was then examined after 24 h to determine microbial growth. The minimal concentration of fragrance inhibiting the growth of an organism by at least 80% was determined as the minimal inhibitory concentration (MIC).
(§2) Ax 25 was identified as Staphylococcus epidermidis by FAME analysis. Identification with the Api Coryne test kit yielded the following species assignments for the remainder of the strains: Ax 26 Corynebacterium sp.; Ax 3 Corynebacterium bovis; Ax 7 Corynebacterium group G; Ax 10 Corynebacterium jeikeium; Ax 11 Corynebacterium jeikeium; Ax 12 Corynebacterium jeikeium; Ax 15 Corynebacterium jeikeium; Ax 20 Corynebacterium striatum/amycolatum; Ax 19 Corynebacterium jeikeium. The strains were isolated from the axilla of 8 human volunteers. Based on biochemical tests and colony morphology all strains were distinct from each other, even the several strains all belonging to Corynebacterium jeikeium.

The test system of data set [2] is Ax 15 Corynebacterium jeikeium. In words: MIC microtiter plate test, axilla bacteria. The format is cell-based. The conditions noted are these: for Bacteriostatic activity (concentration needed for at least 80% reduction in growth): Corynebact. Ax15, 24 hours; for Minimal inhibitory concentration (MIC): Ax15, growth inhibition by at least 80%, 24 h at 36° C.
Text: as §1, §2

In data set [3] the test system is Ax 7 Corynebacterium group G. In words: MIC microtiter plate test, axilla bacteria. The following applies: for Bacteriostatic activity (concentration needed for at least 80% reduction in growth): Corynebact. Ax7, 24 hours; for Minimal inhibitory concentration (MIC): Ax7, growth inhibition by at least 80%, 24 h at 36° C. In kind it is cell-based.
Text: as §1, §2

For data set [4], the system named is Ax 20 Corynebacterium striatum/amycolatum. In words: MIC microtiter plate test, axilla bacteria. The format is cell-based. The following applies: Ax20; growth inhibition by at least 80%, 24 h at 36° C.
Text: as §1, §2

Data set [5] deals with Ax 10 Corynebacterium jeikeium. The data set can be described thus: MIC microtiter plate test, axilla bacteria. The format is cell-based. The following applies: Ax10; growth inhibition by at least 80%, 24 h at 36° C.
Text: as §1, §2

Data set [6] has as its system Ax 12 Corynebacterium jeikeium. In words: MIC microtiter plate test, axilla bacteria. The format is cell-based. The conditions noted are these: Ax12; growth inhibition by at least 80%, 24 h at 36° C.
Text: as §1, §2

Data set [7] concerns Ax 11 Corynebacterium jeikeium. The data set can be described thus: MIC microtiter plate test, axilla bacteria. The conditions noted are these: Ax11; growth inhibition by at least 80%, 24 h at 36° C. The format is cell-based.
Text: as §1, §2

Data set [8] has as its system Ax 3 Corynebacterium bovis. The data set can be described thus: MIC microtiter plate test, axilla bacteria. In kind it is cell-based. The following applies: Ax3; growth inhibition by at least 80%, 24 h at 36° C.
Text: as §1, §2

The compound `C=CCc1ccc(O)c(OC)c1` [Eugenol] returned a vapour pressure in “Vapour pressure” of 109 µg/L.

As to `COC1CC(C2CC3CC2C(C)C3(C)C)CCC1O` (single isomer, unassigned; peak a) [Peak A], the “Bacteriostatic activity (concentration needed for at least 80% reduction in growth)” value was 0.0040 percent (w/v) in [1] (Table 7); 0.0040 percent (w/v) in data set [1] (Table 8); 0.0048 percent (w/v) in [2] (Table 7); 0.0048 percent (w/v) in [2] (Table 8); 0.0048 percent (w/v) in data set [3] (Table 7); 0.0048 percent (w/v) in data set [3] (Table 8).

For the compound `CC1=CCC(/C=C\C(C)C(C)O)C1(C)C` (centres unmarked) [Ebanol], the “Minimal inhibitory concentration (MIC)” value in data set [1] is 0.1250 % weight/ volume; in data set [4], 0.1250 % weight/ volume; in data set [2] it was 0.2500 % weight/ volume; in [3], 0.1250 % weight/ volume; in data set [5] it was 0.2500 % weight/ volume; in [6] it was 0.2500 % weight/ volume. Moreover, the “Minimal inhibitory concentration (MIC)” value in data set [7] turned out to be 0.2500 % weight/ volume; in data set [8] it was 0.1250 % weight/ volume.

Take `CC1=CCC(CCC(C)C(C)O)C1(C)C` (centres unmarked) [Sandalore]: the “Minimal inhibitory concentration (MIC)” value in [1] was 0.1250 % weight/ volume; in data set [4], 0.1250 % weight/ volume; in [2], 0.2500 % weight/ volume; in [3] it was 0.1250 % weight/ volume; in data set [5], 0.1250 % weight/ volume; in data set [6], 0.1250 % weight/ volume. Also, the “Minimal inhibitory concentration (MIC)” value in [7] and in data set [8] was 0.1250 % weight/ volume each time.

`CC1C2CC(CC2C2CCC(O)CC2)C1(C)C` (centres unmarked) [4-(5,5,6-trimethylbicyclo[2.2.1]hept-2-yl)-cyclohexanol]: the vapour pressure entry in the data set “Vapour pressure” is listed as “about 2.2 µg/L”.

Take `CCC(=CCC1CC=C(C)C1(C)C)CO` (centres unmarked) [Radjanol]: the “Minimal inhibitory concentration (MIC)” value was 0.1250 % weight/ volume in [1], 0.125. % weight/ volume in data set [2] and 0.0625 % weight/ volume in data set [3].

For `CC1C2CC(CC2C2CCCCC2O)C1(C)C` (centres unmarked) [2-(5,5,6-trimethylbicyclo[2.2.1]hept-2-yl)-cyclohexanol], the vapour pressure entry in “Vapour pressure” is recorded as “about 2.2 µg/L”.

For the compound `CC1C2CC(CC2C2CCCC(O)C2)C1(C)C` (centres unmarked) [3-(5,5,6-trimethylbicyclo[2.2.1]hept-2-yl)-cyclohexanol], the vapour pressure entry in the data set “Vapour pressure” is recorded as “about 2.2 µg/L”.

Turning to `COC1CC(C2CC3CC2C(C)C3(C)C)CCC1O` (single isomer, unassigned; peak b) [Peak B], the “Bacteriostatic activity (concentration needed for at least 80% reduction in growth)” value in data set [1] (Table 7) is reported as 0.0023 percent (w/v); in data set [1] (Table 8) it was 0.0023 percent (w/v); in data set [2] (Table 7) it was 0.0028 percent (w/v); in data set [2] (Table 8), 0.0028 percent (w/v); in data set [3] (Table 7), 0.0028 percent (w/v); in [3] (Table 8), 0.0028 percent (w/v).
